In ChEMBL document CHEMBL1131163 (J Med Chem, 1998):

Target: D(2) dopamine receptor (Rattus norvegicus) (UniProt P61169)
Sequence (P61169 whole entry, looked up): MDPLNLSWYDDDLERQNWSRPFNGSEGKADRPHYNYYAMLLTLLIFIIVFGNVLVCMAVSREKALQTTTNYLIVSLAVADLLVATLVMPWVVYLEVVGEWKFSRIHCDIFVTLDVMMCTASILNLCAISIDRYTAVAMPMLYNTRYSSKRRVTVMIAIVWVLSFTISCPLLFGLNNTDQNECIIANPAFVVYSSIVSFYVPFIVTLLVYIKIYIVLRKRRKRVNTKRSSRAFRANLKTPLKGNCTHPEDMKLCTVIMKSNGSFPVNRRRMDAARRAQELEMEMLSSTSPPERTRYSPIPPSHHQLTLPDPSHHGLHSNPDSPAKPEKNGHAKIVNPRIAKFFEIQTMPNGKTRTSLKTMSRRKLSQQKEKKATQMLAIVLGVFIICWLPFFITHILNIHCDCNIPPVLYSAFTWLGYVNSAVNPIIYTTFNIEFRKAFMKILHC

## CN1C[C@H](C(N)=O)C=C2c3cccc4[nH]c(Br)c(c34)C[C@H]21
  Ki: 2 nM
